From patent publication US20040082557A1, “Methods for treating estrogen-dependent disorders” (priority 2001, published 2004)

Legend:
endometrial explants = assay: Animal model of endometriosis in adult female rats (endometrium autotransplanted under the renal capsule); assay type: in vivo, rat; settings: for volume of the explant: measured one week after the fourth weekly dose
[1] = system: pain symptoms in premenopausal women; assay: Randomized, double-blind, parallel group clinical study of exemestane on pain symptoms in premenopausal women with endometriosis; assay type: in vivo, human; settings: for ESS Composite Improvement from Visit 6 (Baseline): No / ESS Composite Improvement from Visit 6 (Baseline): Yes: % of total reported
[2] = 25 mg orally per day, Visit 10 (4 weeks of exemestane)
[3] = 25 mg orally per day, Visit 10 (4 weeks of exemestane), improvement = decrease of at least 1 point
[4] = 25 mg orally per day, Visit 14 (8 weeks of exemestane)
[5] = 25 mg orally per day, Visit 18 (follow-up)
[6] = 100 mg orally per day, Visit 10 (4 weeks of exemestane)
[7] = 100 mg orally per day, Visit 10 (4 weeks of exemestane), improvement = decrease of at least 1 point
[8] = 100 mg orally per day, Visit 14 (8 weeks of exemestane)
[9] = 100 mg orally per day, Visit 18 (follow-up)
[10] = either treatment group (25 or 100 mg/day), over the study period

Compound: CC(C)C[C@H](NC(=O)[C@@H](Cc1c[nH]c2ccccc12)NC(=O)[C@H](Cc1ccc(O)cc1)NC(=O)[C@H](CO)NC(=O)[C@H](Cc1c[nH]c2ccccc12)NC(=O)[C@H](Cc1c[nH]cn1)NC(=O)[C@@H]1CCC(=O)N1)C(=O)N[C@@H](CCCNC(=N)N)C(=O)N1CCC[C@H]1C(=O)NCC(N)=O [triptorelin]
- volume of the explant (endometrial explants; triptorelin alone, subcutaneously once weekly for 4 weeks): dose-related decrease in the volume of the explant

Compound: C=C1C[C@@H]2[C@H](CC[C@]3(C)C(=O)CC[C@@H]23)[C@@]2(C)C=CC(=O)C=C12 [Exemestane, 6-methylenandrost-1,4-diene-3,17-dione]
- volume of the explant (endometrial explants; exemestane alone, intramuscularly once a week for 4 consecutive weeks): dose-related decrease in the volume of the explant
- effect on growth of the endometrial explants, combination (endometrial explants; exemestane in combination with triptorelin at marginally or intermediate effective doses, 4 weeks): additive or synergistic effect
- tolerability ([1]; 25 mg and 100 mg, 54 woman subjects who received at least one dose): well tolerated
- Dysmenorrhea: Improvement over Visit 6 (Baseline, Start of Treatment): No [1, 2]: 44.0%
- Dyspareunia: Improvement over Visit 6 (Baseline, Start of Treatment): No [1, 2]: 35.3%
- Pelvic Pain: Improvement over Visit 6 (Baseline, Start of Treatment): No [1, 2]: 44.0%
- ESS Scale, Composite Score, Change from Visit 6, Mean ([1]; 25 mg orally per day, Visit 10 (4 weeks of exemestane), 17 patients with 3 endpoints evaluated, Visit 6 mean 5.0588, SD 2.0917, within treatment p 0.002): −2.000
- ESS Composite Improvement from Visit 6 (Baseline): No [1, 2]: 56.0%
- ESS Composite Improvement from Visit 6 (Baseline): Yes ([1]; 25 mg orally per day, Visit 10 (4 weeks of exemestane), improvement = at least 3-point decrease (3 symptoms) or 2-point (2 symptoms)): 44.0%
- Dysmenorrhea: Improvement over Visit 6 (Baseline, Start of Treatment): Yes [1, 3]: 56.0%
- Dyspareunia: Improvement over Visit 6 (Baseline, Start of Treatment): Yes [1, 3]: 64.7%
- Pelvic Pain: Improvement over Visit 6 (Baseline, Start of Treatment): Yes [1, 3]: 56.0%
- Dysmenorrhea: Improvement over Visit 6 (Baseline, Start of Treatment): No [1, 4]: 41.7%
- Dysmenorrhea: Improvement over Visit 6 (Baseline, Start of Treatment): Yes [1, 4]: 58.3%
- Dyspareunia: Improvement over Visit 6 (Baseline, Start of Treatment): No [1, 4]: 31.6%
- Dyspareunia: Improvement over Visit 6 (Baseline, Start of Treatment): Yes [1, 4]: 68.4%
- Pelvic Pain: Improvement over Visit 6 (Baseline, Start of Treatment): No [1, 4]: 41.7%
- Pelvic Pain: Improvement over Visit 6 (Baseline, Start of Treatment): Yes [1, 4]: 58.3%
- ESS Scale, Composite Score, Change from Visit 6, Mean ([1]; 25 mg orally per day, Visit 14 (8 weeks of exemestane), 19 patients, Visit 6 mean 5.1579, SD 1.8257, within treatment p <0.001): −2.000
- ESS Composite Improvement from Visit 6 (Baseline): No [1, 4]: 66.7%
- ESS Composite Improvement from Visit 6 (Baseline): Yes [1, 4]: 33.3%
- Dysmenorrhea: Improvement over Visit 6 (Baseline, Start of Treatment): No [1, 5]: 64.0%
- Dysmenorrhea: Improvement over Visit 6 (Baseline, Start of Treatment): Yes [1, 5]: 36.0%
- Dyspareunia: Improvement over Visit 6 (Baseline, Start of Treatment): No [1, 5]: 29.4%
- Dyspareunia: Improvement over Visit 6 (Baseline, Start of Treatment): Yes [1, 5]: 70.6%
- Pelvic Pain: Improvement over Visit 6 (Baseline, Start of Treatment): No [1, 5]: 68.0%
- Pelvic Pain: Improvement over Visit 6 (Baseline, Start of Treatment): Yes [1, 5]: 32.0%
- ESS Scale, Composite Score, Change from Visit 6, Mean ([1]; 25 mg orally per day, Visit 18 (follow-up), 17 patients, Visit 6 mean 5.0588, SD 1.8028, within treatment p <0.001): −2.000
- ESS Composite Improvement from Visit 6 (Baseline): No [1, 5]: 84.0%
- ESS Composite Improvement from Visit 6 (Baseline): Yes [1, 5]: 16.0%
- Dyspareunia score, Change from Baseline, Mean ± SD ([1]; 25 mg, Visit 10 (4 weeks of exemestane), baseline 1.6 ± 0.7, N 17): −0.9 ± 0.8
- Pelvic Pain score, Change from Baseline, Mean ± SD ([1]; 25 mg, Visit 10 (4 weeks of exemestane), baseline 1.8 ± 0.5, N 25): −0.6 ± 0.9
- Dysmenorrhea score, Change from Baseline, Mean ± SD ([1]; 25 mg, Visit 10 (4 weeks of exemestane), baseline 2.0 ± 0.6, N 17): −0.9 ± 0.8
- Dyspareunia score, Change from Baseline, Mean ± SD ([1]; 25 mg, Visit 14 (8 weeks of exemestane), baseline 1.6 ± 0.7, N 19): −0.8 ± 0.6
- Pelvic Pain score, Change from Baseline, Mean ± SD ([1]; 25 mg, Visit 14 (8 weeks of exemestane), baseline 1.8 ± 0.5, N 24): −0.6 ± 0.9
- Dysmenorrhea score, Change from Baseline, Mean ± SD ([1]; 25 mg, Visit 14 (8 weeks of exemestane), baseline 2.0 ± 0.6, N 19): −0.8 ± 0.6
- Dysmenorrhea: Improvement over Visit 6 (Baseline, Start of Treatment): No [1, 6]: 38.5%
- Dyspareunia: Improvement over Visit 6 (Baseline, Start of Treatment): No [1, 6]: 38.9%
- Pelvic Pain: Improvement over Visit 6 (Baseline, Start of Treatment): No [1, 6]: 30.8%
- ESS Scale, Composite Score, Change from Visit 6, Mean ([1]; 100 mg orally per day, Visit 10 (4 weeks of exemestane), 18 patients, Visit 6 mean 5.9444, SD 2.0364, within treatment p <0.001): −2.5000
- ESS Composite Improvement from Visit 6 (Baseline): No [1, 6]: 46.2%
- ESS Composite Improvement from Visit 6 (Baseline): Yes ([1]; 100 mg orally per day, Visit 10 (4 weeks of exemestane), improvement = at least 3-point decrease (3 symptoms) or 2-point (2 symptoms)): 53.8%
- Dysmenorrhea: Improvement over Visit 6 (Baseline, Start of Treatment): Yes [1, 7]: 61.5%
- Dyspareunia: Improvement over Visit 6 (Baseline, Start of Treatment): Yes [1, 7]: 61.1%
- Pelvic Pain: Improvement over Visit 6 (Baseline, Start of Treatment): Yes [1, 7]: 69.2%
- Dysmenorrhea: Improvement over Visit 6 (Baseline, Start of Treatment): No [1, 8]: 39.1%
- Dysmenorrhea: Improvement over Visit 6 (Baseline, Start of Treatment): Yes [1, 8]: 60.9%
- Dyspareunia: Improvement over Visit 6 (Baseline, Start of Treatment): No [1, 8]: 47.1%
- Dyspareunia: Improvement over Visit 6 (Baseline, Start of Treatment): Yes [1, 8]: 52.9%
- Pelvic Pain: Improvement over Visit 6 (Baseline, Start of Treatment): No [1, 8]: 30.4%
- Pelvic Pain: Improvement over Visit 6 (Baseline, Start of Treatment): Yes [1, 8]: 69.6%
- ESS Scale, Composite Score, Change from Visit 6, Mean ([1]; 100 mg orally per day, Visit 14 (8 weeks of exemestane), 17 patients, Visit 6 mean 5.5882, SD 1.9059, within treatment p <0.001): −2.4118
- ESS Composite Improvement from Visit 6 (Baseline): No [1, 8]: 43.5%
- ESS Composite Improvement from Visit 6 (Baseline): Yes [1, 8]: 56.5%
- Dysmenorrhea: Improvement over Visit 6 (Baseline, Start of Treatment): No [1, 9]: 50.0%
- Dysmenorrhea: Improvement over Visit 6 (Baseline, Start of Treatment): Yes [1, 9]: 50.0%
- Dyspareunia: Improvement over Visit 6 (Baseline, Start of Treatment): No [1, 9]: 50.0%
- Dyspareunia: Improvement over Visit 6 (Baseline, Start of Treatment): Yes [1, 9]: 50.0%
- Pelvic Pain: Improvement over Visit 6 (Baseline, Start of Treatment): No [1, 9]: 31.8%
- Pelvic Pain: Improvement over Visit 6 (Baseline, Start of Treatment): Yes [1, 9]: 68.2%
- ESS Scale, Composite Score, Change from Visit 6, Mean ([1]; 100 mg orally per day, Visit 18 (follow-up), 14 patients, Visit 6 mean 5.5714, SD 1.7852, within treatment p 0.016): −1.4286
- ESS Composite Improvement from Visit 6 (Baseline): No [1, 9]: 50.0%
- ESS Composite Improvement from Visit 6 (Baseline): Yes [1, 9]: 50.0%
- Dyspareunia score, Change from Baseline, Mean ± SD ([1]; 100 mg, Visit 10 (4 weeks of exemestane), baseline 1.9 ± 1.0, N 18): −1.0 ± 1.3
- Pelvic Pain score, Change from Baseline, Mean ± SD ([1]; 100 mg, Visit 10 (4 weeks of exemestane), baseline 2.1 ± 0.5, N 26): −0.8 ± 0.7
- Dysmenorrhea score, Change from Baseline, Mean ± SD ([1]; 100 mg, Visit 10 (4 weeks of exemestane), baseline 2.1 ± 0.7, N 18): −1.0 ± 1.3
- Dyspareunia score, Change from Baseline, Mean ± SD ([1]; 100 mg, Visit 14 (8 weeks of exemestane), baseline 1.9 ± 1.0, N 17): −0.8 ± 0.8
- Pelvic Pain score, Change from Baseline, Mean ± SD ([1]; 100 mg, Visit 14 (8 weeks of exemestane), baseline 2.1 ± 0.5, N 23): −0.8 ± 0.8
- Dysmenorrhea score, Change from Baseline, Mean ± SD ([1]; 100 mg, Visit 14 (8 weeks of exemestane), baseline 2.1 ± 0.7, N 17): −0.8 ± 0.7
- endometriosis symptoms ([1]; 25 or 100 mg orally per day, 2 months): moderate improvement in endometriosis symptoms
- blood pressure [1, 10]: Neither blood pressure nor body weight changed significantly
- body weight [1, 10]: Neither blood pressure nor body weight changed significantly
- hematology, plasma chemistry or urinalysis laboratory assays [1, 10]: No noteworthy changes
